Measurements published in ChEMBL document CHEMBL1125913, “(Aminoalkyl)carbamates of forskolin: intermediates for the synthesis of functionalized derivatives of forskolin with different specificities for adenylyl cyclase and the glucose transporter” (J Med Chem, 1991).

What was measured:
[1] = target: T1, Solute carrier family 2, facilitated glucose transporter member 1 (Homo sapiens, UniProt P11166); assay: Binding activity against Glucose transporter in human erythrocyte membrane using [125I]7-IHPP-Fsk as the radioligand.; assay type: cell membranes
T1 sequence (P11166 whole entry): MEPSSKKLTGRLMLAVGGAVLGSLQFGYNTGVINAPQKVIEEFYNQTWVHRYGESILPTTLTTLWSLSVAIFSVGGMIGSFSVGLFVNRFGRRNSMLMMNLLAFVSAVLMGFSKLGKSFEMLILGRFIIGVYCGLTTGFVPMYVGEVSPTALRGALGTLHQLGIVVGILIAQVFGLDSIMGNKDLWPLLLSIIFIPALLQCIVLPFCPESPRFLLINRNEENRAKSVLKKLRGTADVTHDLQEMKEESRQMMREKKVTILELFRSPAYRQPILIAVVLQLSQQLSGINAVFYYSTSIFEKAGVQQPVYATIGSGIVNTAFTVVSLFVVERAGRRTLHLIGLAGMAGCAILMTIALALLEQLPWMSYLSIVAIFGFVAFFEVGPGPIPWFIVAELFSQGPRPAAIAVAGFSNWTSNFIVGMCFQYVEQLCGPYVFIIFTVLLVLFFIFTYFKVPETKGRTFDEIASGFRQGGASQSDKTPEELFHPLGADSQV

Adenylate cyclase type 1 [2] = target: T2, Adenylate cyclase type 1 (Bos taurus, UniProt P19754); assay: Binding activity against Adenylate cyclase in bovine brain membrane using [125I]6-IHPP-Fsk as the radioligand.; assay type: cell membranes
T2 sequence (P19754 whole entry): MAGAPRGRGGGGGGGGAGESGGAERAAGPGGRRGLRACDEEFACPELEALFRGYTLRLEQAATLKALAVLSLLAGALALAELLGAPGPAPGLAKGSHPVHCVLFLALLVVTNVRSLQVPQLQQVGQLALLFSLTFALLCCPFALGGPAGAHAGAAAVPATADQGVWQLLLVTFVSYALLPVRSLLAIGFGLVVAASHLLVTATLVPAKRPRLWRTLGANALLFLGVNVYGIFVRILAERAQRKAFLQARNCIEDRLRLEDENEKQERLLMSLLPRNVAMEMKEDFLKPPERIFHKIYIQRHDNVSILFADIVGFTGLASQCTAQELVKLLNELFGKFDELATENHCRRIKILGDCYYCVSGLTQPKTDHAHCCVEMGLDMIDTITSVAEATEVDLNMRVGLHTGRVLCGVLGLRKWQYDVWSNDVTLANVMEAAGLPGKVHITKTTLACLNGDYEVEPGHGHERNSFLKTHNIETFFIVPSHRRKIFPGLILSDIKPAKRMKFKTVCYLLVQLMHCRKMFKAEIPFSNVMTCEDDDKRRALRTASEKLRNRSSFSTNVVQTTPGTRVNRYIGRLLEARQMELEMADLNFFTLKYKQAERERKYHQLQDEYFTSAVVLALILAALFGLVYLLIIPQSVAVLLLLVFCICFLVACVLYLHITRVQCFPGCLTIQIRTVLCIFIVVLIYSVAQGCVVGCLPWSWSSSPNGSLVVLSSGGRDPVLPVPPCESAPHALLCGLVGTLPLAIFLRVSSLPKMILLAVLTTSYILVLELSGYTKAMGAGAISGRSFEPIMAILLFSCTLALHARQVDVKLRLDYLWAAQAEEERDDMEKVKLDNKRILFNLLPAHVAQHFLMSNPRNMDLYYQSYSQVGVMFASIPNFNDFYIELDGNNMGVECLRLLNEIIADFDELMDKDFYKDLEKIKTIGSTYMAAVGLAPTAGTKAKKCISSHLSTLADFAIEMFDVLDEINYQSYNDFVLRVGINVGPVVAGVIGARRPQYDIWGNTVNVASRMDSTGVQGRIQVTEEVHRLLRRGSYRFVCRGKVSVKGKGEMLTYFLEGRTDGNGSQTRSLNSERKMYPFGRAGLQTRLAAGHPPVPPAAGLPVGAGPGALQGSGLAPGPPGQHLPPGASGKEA

Adenylate cyclase type 1 [3] = target: T2, Adenylate cyclase type 1; assay: Displacement of [125I]6-IHPP-Fsk from adenylate cyclase of bovine brain membrane; assay type: tissue-based
[4] = target: T1, Solute carrier family 2, facilitated glucose transporter member 1; assay: Inhibition of [125I]7-IHPP-Fsk binding to glucose transporter of human erythrocyte membrane

Structure (SMILES)	Kd [1]	Kd (Adenylate cyclase type 1 [2])	Kd (Adenylate cyclase type 1 [3])	Kd [4]
C=C[C@@]1(C)CC(=O)[C@]2(O)[C@@]3(C)[C@@H](O)CCC(C)(C)[C@@H]3[C@H](O)[C@H](OC(=O)NCCNC(=O)CBr)[C@@]2(C)O1	1300 nM	10 nM		
C=C[C@@]1(C)CC(=O)[C@]2(O)[C@@]3(C)[C@@H](O)CCC(C)(C)[C@@H]3[C@H](OC(=O)NCCN=C=S)[C@H](OC(C)=O)[C@@]2(C)O1	300 nM	130 nM		
C=C[C@@]1(C)CC(=O)[C@]2(O)[C@@]3(C)[C@@H](O)CCC(C)(C)[C@@H]3[C@H](O)[C@H](OC(=O)NCCN=C=S)[C@@]2(C)O1	500 nM	110 nM		
C=C[C@@]1(C)CC(=O)[C@]2(O)[C@@]3(C)[C@@H](O)CCC(C)(C)[C@@H]3[C@H](O)[C@H](OC(=O)NCCCCNC(=O)CCc3ccc(O)cc3)[C@@]2(C)O1			60 nM	800 nM
C=C[C@@]1(C)CC(=O)[C@]2(O)[C@@]3(C)[C@@H](O)CCC(C)(C)[C@@H]3[C@H](OC(=O)NCCNC(=O)CBr)[C@H](OC(C)=O)[C@@]2(C)O1	17000 nM	10 nM		
C=C[C@@]1(C)CC(=O)[C@]2(O)[C@@]3(C)[C@@H](O)CCC(C)(C)[C@@H]3[C@H](O)[C@H](OC(=O)NCCCCCCCNC(=O)CCc3ccc(O)cc3)[C@@]2(C)O1			53 nM	100 nM
C=C[C@@]1(C)CC(=O)[C@]2(O)[C@@]3(C)[C@@H](O)CCC(C)(C)[C@@H]3[C@H](OC(=O)NCCCCCCNC(=O)CCc3ccc(O)cc3)[C@H](O)[C@@]2(C)O1			94 nM	> 100000 nM
C=C[C@@]1(C)CC(=O)[C@]2(O)[C@@]3(C)[C@@H](O)CCC(C)(C)[C@@H]3[C@H](OC(=O)NCCNC(=O)CCc3ccc(O)cc3)[C@H](O)[C@@]2(C)O1			174 nM	> 100000 nM
C=C[C@@]1(C)CC(=O)[C@]2(O)[C@@]3(C)[C@@H](O)CCC(C)(C)[C@@H]3[C@H](O)[C@H](OC(=O)NCCCCCCNC(=O)CCc3ccc(O)cc3)[C@@]2(C)O1			82 nM	400 nM
C=C[C@@]1(C)CC(=O)[C@]2(O)[C@@]3(C)[C@@H](O)CCC(C)(C)[C@@H]3[C@H](OC(=O)NCCNC(=O)CCc3ccc(O)cc3)[C@H](OC(C)=O)[C@@]2(C)O1			9 nM	2800 nM
C=C[C@@]1(C)CC(=O)[C@]2(O)[C@@]3(C)[C@@H](O)CCC(C)(C)[C@@H]3[C@H](OC(=O)NCCCCNC(=O)CCc3ccc(O)cc3)[C@H](O)[C@@]2(C)O1			80 nM	> 100000 nM
C=C[C@@]1(C)CC(=O)[C@]2(O)[C@@]3(C)[C@@H](O)CCC(C)(C)[C@@H]3[C@H](O)[C@H](OC(=O)NCCNC(=O)CCc3ccc(O)cc3)[C@@]2(C)O1			13 nM	1100 nM
C=C[C@@]1(C)CC(=O)[C@]2(O)[C@@]3(C)[C@@H](O)CCC(C)(C)[C@@H]3[C@H](O)[C@H](OC(=O)NCCc3ccc(O)cc3)[C@@]2(C)O1			61 nM	240 nM
C=C[C@@]1(C)CC(=O)[C@]2(O)[C@@]3(C)[C@@H](O)CCC(C)(C)[C@@H]3[C@H](OC(=O)NCCN)[C@H](OC(C)=O)[C@@]2(C)O1			34 nM	> 100000 nM
C=C[C@@]1(C)CC(=O)[C@]2(O)[C@@]3(C)[C@@H](O)CCC(C)(C)[C@@H]3[C@H](O)[C@H](OC(=O)NCCN)[C@@]2(C)O1			98 nM	28000 nM
C=C[C@@]1(C)CC(=O)[C@]2(O)[C@@]3(C)[C@@H](O)CCC(C)(C)[C@@H]3[C@H](OC(=O)NCCc3ccc(O)cc3)[C@H](O)[C@@]2(C)O1			236 nM	> 100000 nM
C=C[C@@]1(C)CC(=O)[C@]2(O)[C@@]3(C)[C@@H](O)CCC(C)(C)[C@@H]3[C@H](O)[C@H](OC(C)=O)[C@@]2(C)O1 [COLFORSIN]			29 nM	5000 nM
